The source of these data is patent US10519099B2, “Cystobactamides” (priority 2014, dated 2019).

In brackets after ≈: the same amount, converted by molar mass. Positions of bridges follow the written chain, without caps; N, C: chain ends. Non-standard residues stand in square brackets, D forms with d. Residues, ends and D or L forms follow the SMILES beside them. *: point of attachment. Ileψ(thiazoline)Cys = CC[C@H](C)[C@H](N)C1=N[C@H](C(=O)*)CS1; dOrn = NCCC[C@@H](N)C(=O)O Some results are limits rather than exact numbers.

What is called MIC is the least concentration at which growth counts as inhibited.

In assay [1] the test system is E. coli DSM-26863 (tolC3). Nature of the assay: MIC microdilution, E. coli DSM-26863 (tolC3). The format is cell-based, Escherichia coli. Conditions: Escherichia coli, DSM26863, read-out: MIC E. coli DSM-26863 (tolC3). The procedure: (§1) Indicator strains used in susceptibility assays were either part of our strain collection or purchased from the German Collection of Microorgansims and Cell Cultures (DSMZ) or from the American Type Culture Collection (ATCC). E. coli strain WT and corresponding E. coli mutants were kindly provided by Prof. Dr. P. Heisig, Pharmaceutical Biology and Microbiology, University of Hamburg. E. coli strains JW0401-1 (WT) and Δtsx were obtained from the CGSC collection.
(§2) MIC values were determined in standardized microdilution assays. Overnight cultures were diluted in the appropriate growth medium to achieve an inoculum of 10^4-10^6 cfu/mL. Yeasts were grown in Myc medium (1% phytone peptone, 1% glucose, 50 mM HEPES, pH 7.0), S. pneumonia and Enterococcus spp. in tryptic soy broth (TSB: 1.7% peptone casein, 0.3% peptone soymeal, 0.25% glucose, 0.5% NaCl, 0.25% K2HPO4; pH 7.3); M. smegmatis in Middlebrook 7H9 medium supplemented with 10% Middlebrook ADC enrichment and 2 ml/I glycerol). All other listed bacteria were grown in Müller-Hinton broth (0.2% beef infusion solids, 1.75% casein hydrolysate, 0.15% starch, pH 7.4). Cystobactamides and reference drugs were added directly to the cultures in sterile 96-well plates as duplicates and serial dilutions were prepared. Microorganisms were grown on a microplate shaker (750 rpm, 30-37° C., 18-48 h), except S. pneumonia, which was grown at non-shaking conditions (37° C., 5% CO2, 18 h). Growth inhibition was assessed by visual inspection and the MIC was defined as the lowest concentration of compound that inhibited visible growth.
(In broth dilution the organism is exposed to a series of concentrations in liquid medium.)

The next assay relates to E. coli DSM-1116. Kind of assay: MIC microdilution, E. coli DSM-1116. The format is cell-based, Escherichia coli. Conditions: Escherichia coli, DSM1116; Gram-negative set; read-out: MIC E. coli DSM-1116. The procedure: as §1, §2
The test system of assay [2] is Citrobacter freundii DSM-30039. Kind of assay: MIC microdilution, C. freundii DSM-30039. The format is cell-based. Conditions: Citrobacter freundii, DSM30039; Gram-negative set; read-out: MIC C. freundii DSM-30039. The procedure:
as §1, §2

The test system of assay [3] is P. aeruginosa DSM-24600 (ESBL). Nature of the assay: MIC microdilution, P. aeruginosa DSM-24600 (ESBL). The format is cell-based, Pseudomonas aeruginosa. The conditions noted are these: Pseudomonas aeruginosa, DSM24600; Gram-negative set; read-out: MIC P. aeruginosa DSM-24600 (ESBL). The procedure: as §1, §2
The subject of assay [4] is Acinetobacter baumannii DSM-30008. Kind of assay: MIC microdilution, A. baumannii DSM-30008. The class given is cell-based. Conditions: Acinetobacter baumannii, DSM30008; Gram-negative set; read-out: MIC A. baumannii DSM-30008. Here is the method:
as §1, §2

Assay [5] concerns Proteus vulgaris DSM-2140. Kind of assay: MIC microdilution, P. vulgaris DSM-2140. The format is cell-based. The conditions noted are these: Proteus vulgaris, DSM2140; Gram-negative set; read-out: MIC P. vulgaris DSM-2140. The procedure: as §1, §2
Assay [6] deals with E. coli WT-3 [gyrA(S83L, D87G)]. Kind of assay: MIC microdilution, E. coli WT-3 [gyrA(S83L, D87G)]. The class given is cell-based, Escherichia coli. Conditions: Escherichia coli, read-out: MIC E. coli WT-3 [gyrA(S83L, D87G)]. The procedure: as §1, §2
The next assay concerns E. coli WT. Kind of assay: MIC microdilution, E. coli WT. The format is cell-based, Escherichia coli. Conditions: Escherichia coli; Gram-negative set; read-out: MIC E. coli WT. The procedure: as §1, §2
For assay [7], the system named is E. coli WT-III [marRΔ74bp]. Kind of assay: MIC microdilution, E. coli WT-III [marRΔ74bp]. The format is cell-based, Escherichia coli. Conditions: Gram-negative set. The procedure: as §1, §2
Assay [8] has as its system Cystobacter velatus MCy8071. Kind of assay: Antibiotic resistance of producer strain MCy8071. The format is cell-based. Conditions: final concentration 50 μg ml^−1. The procedure:
MCy8071 is resistant against the following antibiotics: ampicillin, gentamycin, hygromycin, polymycin, bacitracin, spectinomycin, neomycin, and fusidinic acid. Weak growth is possible with cephalosporin and kasugamycin and no growth is possible with thiostrepton, trimethoprin, kanamycin, and oxytetracycline (final concentration of all antibiotics was adjusted to 50 μg ml^−1).

As for `CCOc1cc(C(=O)O)ccc1NC(=O)c1ccc(NC(=O)c2ccc(NC(=O)C(NC(=O)c3ccc(NC(=O)c4ccc([N+](=O)[O-])cc4)cc3)C(OC)C(N)=O)cc2)c(OC(C)C)c1O` (stereo not shown) [Cys 905-2], the MIC is 2 µg/mL (≈ 2.21 µM) in [1]; 8 µg/mL (≈ 8.83 µM) with E. coli DSM-1116; 8 µg/mL (≈ 8.83 µM) in assay [2]; more than 64 µg/mL in assay [3]; 64 µg/mL (≈ 70.7 µM) in [4]; 32 µg/mL (≈ 35.3 µM) in [5]. For the same molecule, the minimal inhibitory concentration (MIC) in [6] is more than 64 µg/mL; in the assay on E. coli WT, 4 µg/mL (≈ 4.42 µM). In assay [7], the “MIC E. coli WT-III [marRΔ74bp]” value is more than 64 µg/mL.

With `CC[C@H](C)[C@H](N)C1=N[C@H](C(=O)N[C@@H](CC(C)C)C(=O)N[C@H](CCC(=O)O)C(=O)N[C@H](C(=O)N[C@H]2CCCCNC(=O)[C@H](CC(N)=O)NC(=O)[C@@H](CC(=O)O)NC(=O)[C@H](Cc3cnc[nH]3)NC(=O)[C@@H](Cc3ccccc3)NC(=O)[C@H]([C@@H](C)CC)NC(=O)[C@@H](CCCN)NC2=O)[C@@H](C)CC)CS1` [bacitracin] ({Ileψ(thiazoline)Cys}-L[dE]IK[dOrn]I[dF]H[dD]N; lactam 4-C), the “growth of strain MCy8071 in presence of antibiotic” value (“growth of strain MCy8071” below) in [8] is “resistant”.

Consider `COc1cc(Cc2cnc(N)nc2N)cc(OC)c1OC` [trimethoprin], for which the “growth of strain MCy8071” value in assay [8] was “no growth”.

In the case of `CCC(C)Oc1cc(C(=O)O)ccc1NC(=O)c1ccc(NC(=O)c2ccc(NC(=O)C(OC)C(NC(=O)c3ccc(NC(=O)c4ccc([N+](=O)[O-])cc4)cc3)C(=O)O)cc2)c(OC(C)C)c1O` (stereo not shown) [Cys 934-2], the MIC is 32 µg/mL (≈ 34.2 µM) in assay [1]; more than 64 µg/mL in the assay on E. coli DSM-1116; more than 64 µg/mL in assay [2]; more than 64 µg/mL in assay [3]; more than 64 µg/mL in assay [4]; more than 64 µg/mL in assay [5]. Besides, the MIC (in assay [6]; with E. coli WT) was more than 64 µg/mL throughout. The “MIC E. coli WT-III [marRΔ74bp]” value in assay [7] was more than 64 µg/mL.

With `C[C@H]1O[C@H](O[C@H]2[C@H](O)[C@@H](O)[C@@H](O)[C@H](O)[C@@H]2O)[C@@H](N)C[C@@H]1NC(=N)C(=O)O` [kasugamycin], the “growth of strain MCy8071” value in [8] is listed as “Weak growth”.

Take `CC(=O)O[C@H]1C[C@@]2(C)[C@@H](C[C@@H](O)[C@H]3[C@@]4(C)CC[C@@H](O)[C@@H](C)[C@@H]4CC[C@@]32C)/C1=C(\CCC=C(C)C)C(=O)O` [fusidinic acid]: the “growth of strain MCy8071” value in [8] was “resistant”.

In the case of `C=C(NC(=O)C(=C)NC(=O)c1csc(C2=N[C@@H]3c4csc(n4)[C@H]4NC(=O)c5csc(n5)[C@H]([C@](C)(O)[C@@H](C)O)NC(=O)[C@H]5CSC(=N5)/C(=C/C)NC(=O)[C@H]([C@@H](C)O)NC(=O)c5csc(n5)[C@]3(CC2)NC(=O)[C@H](C)NC(=O)C(=C)NC(=O)[C@H](C)NC(=O)[C@H]([C@@H](C)CC)N[C@@H]2C=Cc3c([C@H](C)O)cc(nc3[C@H]2O)C(=O)O[C@@H]4C)n1)C(N)=O` [thiostrepton], in [8], the “growth of strain MCy8071” value is “no growth”.

Take polymycin: in [8], the “growth of strain MCy8071” value is listed as “resistant”.

As for `CN[C@@H]1[C@H](O)[C@H](NC)[C@H]2O[C@@]3(O)C(=O)C[C@@H](C)O[C@H]3O[C@@H]2[C@H]1O` [spectinomycin], the “growth of strain MCy8071” value in [8] is given as “resistant”.

Regarding neomycin, in assay [8], the “growth of strain MCy8071” value is listed as “resistant”.

With gentamycin, the “growth of strain MCy8071” value in assay [8] is “resistant”.

In the case of `COC(C(N)=O)C(NC(=O)c1ccc(NC(=O)c2ccc([N+](=O)[O-])cc2)cc1)C(=O)Nc1ccc(C(=O)Nc2ccc(C(=O)Nc3ccc(C(=O)O)c(O)c3OC(C)C)c(O)c2OC(C)C)cc1` (stereo not shown) [Cys 935-2], the MIC in [1] was 0.25 µg/mL (≈ 0.267 µM); with E. coli DSM-1116 it was 0.5 µg/mL (≈ 0.534 µM); in assay [2], 1 µg/mL (≈ 1.07 µM); in assay [3], 8 µg/mL (≈ 8.55 µM); in [4], 2 µg/mL (≈ 2.14 µM); in [5], 1 µg/mL (≈ 1.07 µM). Moreover, the MIC in [6] was found to be 2 µg/mL (≈ 2.14 µM); in the assay with E. coli WT it was 0.5 µg/mL (≈ 0.534 µM). In addition, the “MIC E. coli WT-III [marRΔ74bp]” value in assay [7] was found to be 2 µg/mL (≈ 2.14 µM).

Consider `COC(C(=O)O)C(NC(=O)c1ccc(NC(=O)c2ccc([N+](=O)[O-])cc2)cc1)C(=O)Nc1ccc(C(=O)Nc2ccc(C(=O)Nc3ccc(C(=O)O)cc3OC(C)C)c(O)c2OC(C)C)cc1` (stereo not shown) [Cys 920-1], for which the MIC is 64 µg/mL (≈ 69.5 µM) in assay [1]; more than 64 µg/mL with E. coli DSM-1116; more than 64 µg/mL in assay [2]; more than 64 µg/mL in [3]; more than 64 µg/mL in assay [4]; more than 64 µg/mL in assay [5]. In addition, the MIC (in assay [6]; with E. coli WT) was more than 64 µg/mL each time. In addition, the “MIC E. coli WT-III [marRΔ74bp]” value in [7] is more than 64 µg/mL.

Take `CC1(C)S[C@@H]2[C@H](NC(=O)[C@H](N)c3ccccc3)C(=O)N2[C@H]1C(=O)O` [ampicillin]: in assay [8], the “growth of strain MCy8071” value is “resistant”.
